Measurements: patent US20170267667A1, “[…] AS NON-NUCLEOSIDE REVERSE TRANSCRIPTASE INHIBITORS FOR ANTI-HIV-1 CHEMOTHERAPY” (Purdue Research Foundation, priority 2016, published 2017)
pEC50, pIC50: −log10 of the molar value.

Legend:
[1] = biological target: HIV-1 reverse transcriptase (Human immunodeficiency virus type 1 group M subtype B, UniProt P04585); experiment: RT inhibition assay, incorporation of [32P]GTP into poly(rC)/oligo(dG) template primer; type: biochemical; settings: poly(rC):oligo(dG) as the template primer; mean of at least two experiments; read-out: IC50 inhibitory activity versus HIV-1 reverse transcriptase
Procedure: RT Inhibition Assay. Inhibition of purified recombinant reverse transcriptase was measured by the incorporation of [^32P]GTP into poly(rC)/oligo(dG) homopolymer template primers, as previously described (Cushman, M., et al., J. Med. Chem. 1996, 39, 3217-3227).

HIV-1IIIB = experiment: MTT assay, HIV-1IIIB in MT-4 cells; type: cell-based; settings: for SI (CC50/EC50) MT-4 cells: CC50/EC50 ratio, HIV-1IIIB in MT-4 cells; for pEC50: Human immunodeficiency virus 1, MT4, inhibition of cytopathicity of HIV-1IIIB in MT-4 cells
Procedure: (§1) In Vitro Antiviral Assay. Evaluation of the antiviral activity of compounds against HIV- 1RF infection in CEM-SS cells was performed using the XTT cytoprotection assay, as previously described (Buckheit, R. W. Jr., et al., Antiviral Res. 1995, 26, 117-132). Evaluation of the antiviral activity of compounds against HIV-1IIIB and HIV-2ROD in MT-4 cells was performed using the MTT assay, as previously described (Rice, W. G. and Bader, J. P., Adv. Pharmacol. (San Diego) 1995, 33, 389-438).

[2] = Cytotoxicity for mock-infected MT-4 cells; type: cell-based; settings: human
Procedure: as §1
(§2) Biological Results. The antiviral activities of the ADAMs were evaluated by determining their ability to inhibit the enzymatic activity of HIV-1 RT in vitro (IC50) and protect HIV-infected cells from the cytopathic effects (EC50) of two viral strains (HIV-1RF and HIV-1IIIB). The cytotoxicities (CC50) of the ADAMs were determined on CEM-SS cells and MT-4 cells.

[3] = Cytotoxicity for mock-infected CEM-SS cells; type: cell-based; settings: human
Procedure: as §1, §2

HIV-1RF = experiment: XTT cytoprotection assay, HIV-1RF infection in CEM-SS cells; type: cell-based; settings: for SI (CC50/EC50) CEM-SS cells: CC50/EC50 ratio, HIV-1RF in CEM-SS cells; for pEC50: Human immunodeficiency virus 1, inhibition of cytopathicity of HIV-1RF in CEM-SS cells
Procedure: as §1

In the case of CON=C(F)c1cc(/C(=C\CCCc2nnc(C)o2)c2cc(C)c3oc(=O)n(C)c3c2)cc(C)c1OC [ADAM 5, 5-[(1E)-1-(3,7-Dimethyl-2-oxo-2,3-dihydro-1,3-benzoxazol-5-yl)-5-(5-methyl-1,3,4-oxadiazol-2-yl)pent-1-en-1-yl]-N,2-dimethoxy-3-methylbenzenecarboximidoyl Fluoride], the pIC50 [1] was 5.47, the “SI (CC50/EC50) MT-4 cells” value (HIV-1IIIB) was 76 and the pEC50 (HIV-1IIIB) was 6.46. For the same compound, the CC50 [2] was 26.5 µM, the CC50 [3] was 6.5 µM and the “SI (CC50/EC50) CEM-SS cells” value (HIV-1RF) was 13. It also gave a pEC50 (HIV-1RF) of 6.30.
For CON=C(F)c1cc(/C(=C\CCCN2CCOC2=O)c2cc(C)c3oc(=O)n(C)c3c2)cc(C)c1OC [ADAM 6, 5-[(1E)-1-(3,7-Dimethyl-2-oxo-2,3-dihydro-1,3-benzoxazol-5-yl)-5-(2-oxo-1,3-oxazolidin-3-yl)pent-1-en-1-yl]-N,2-dimethoxy-3-methylbenzenecarboximidoyl Fluoride], the pIC50 [1] was 5.63, the pEC50 (HIV-1IIIB) was under 5.12 and the CC50 [2] was 7.53 µM. It also gave a CC50 [3] of 5.04 µM and a pEC50 (HIV-1RF) of under 4.00.
With CON=C(F)c1cc(/C(=C\CCCc2nnc(C)o2)c2cc(C)c3onc(OC)c3c2)cc(C)c1OC [ADAM 7, N,2-Dimethoxy-5-[(1Z)-1-(3-methoxy-7-methyl-1,2-benzoxazol-5-yl)-5-(5-methyl-1,3,4-oxadiazol-2-yl)pent-1-en-1-yl]-3-methylbenzenecarboximidoyl Fluoride] the pIC50 [1] was 5.85, the “SI (CC50/EC50) MT-4 cells” value (HIV-1IIIB) was 6 and the pEC50 (HIV-1IIIB) was 5.54. The CC50 [2] was 15.8 µM, the CC50 [3] was 13.9 µM and the “SI (CC50/EC50) CEM-SS cells” value (HIV-1RF) was 7. The pEC50 (HIV-1RF) was 5.72.
For CON=C(F)c1cc(/C(=C\CCCc2nc(C)no2)c2cc(C)c3onc(OC)c3c2)cc(C)c1OC [ADAM 8, N,2-Dimethoxy-5-[(1Z)-1-(3-methoxy-7-methyl-1,2-benzoxazol-5-yl)-5-(3-methyl-1,2,4-oxadiazol-5-yl)pent-1-en-1-yl]-3-methylbenzenecarboximidoyl Fluoride], the pIC50 [1] was 5.73, the “SI (CC50/EC50) MT-4 cells” value (HIV-1IIIB) was 2 and the pEC50 (HIV-1IIIB) was 5.39. For the same compound, the CC50 [2] was 9.66 µM, the CC50 [3] was 5.39 µM and the “SI (CC50/EC50) CEM-SS cells” value (HIV-1RF) was 3. The pEC50 (HIV-1RF) was 5.69.
Compound CON=C(F)c1cc(/C(=C\CCCN2CCOC2=O)c2cc(C)c3onc(OC)c3c2)cc(C)c1OC [ADAM 9, N,2-Dimethoxy-5-[(1Z)-1-(3-methoxy-7-methyl-1,2-benzoxazol-5-yl)-5-(2-oxo-1,3-oxazolidin-3-yl)pent-1-en-1-yl]-3-methylbenzenecarboximidoyl Fluoride] has a pIC50 [1] of 4.33, a pEC50 (HIV-1IIIB) of under 4.58 and a CC50 [2] of 26.1 µM. It also gave a CC50 [3] of 17.8 µM and a pEC50 (HIV-1RF) of under 4.00.
CON=C(F)c1cc(/C(=C\CCCc2nnc(C)o2)c2cccc(C#N)c2)cc(C)c1OC [ADAM 10, 5-[(1Z)-1-(3-Cyanophenyl)-5-(5-methyl-1,3,4-oxadiazol-2-yl)pent-1-en-1-yl]-N,2-dimethoxy-3-methylbenzenecarboximidoyl Fluoride] gave a pIC50 [1] of 4.43, a pEC50 (HIV-1IIIB) of under 5.96 and a CC50 [2] of 1.07 µM. It also gave a CC50 [3] of 1.8 µM and a pEC50 (HIV-1RF) of under 4.00.
CON=C(F)c1cc(/C(=C\CCCc2nc(C)no2)c2cccc(C#N)c2)cc(C)c1OC [ADAM 11, 5-[(1Z)-1-(3-Cyanophenyl)-5-(3-methyl-1,2,4-oxadiazol-5-yl)pent-1-en-1-yl]-N,2-dimethoxy-3-methylbenzenecarboximidoyl Fluoride] showed a pIC50 [1] of 5.27, a pEC50 (HIV-1IIIB) of under 5.39 and a CC50 [2] of 4.04 µM. For the same compound, the CC50 [3] was 3.5 µM and the pEC50 (HIV-1RF) was under 4.00.
Compound CON=C(F)c1cc(/C(=C\CCCN2CCOC2=O)c2cccc(C#N)c2)cc(C)c1OC [ADAM 12, 5-[(1Z)-1-(3-Cyanophenyl)-5-(2-oxo-1,3-oxazolidin-3-yl)pent-1-en-1-yl]-N,2-dimethoxy-3-methylbenzenecarboximidoyl Fluoride] has a pIC50 [1] of under 4.00, a pEC50 (HIV-1IIIB) of under 5.78 and a CC50 [2] of 1.66 µM. The CC50 [3] was 1.66 µM and the pEC50 (HIV-1RF) was under 4.00.
For CON=C(F)c1cc(/C(=C\CCCc2nnc(C)o2)c2ccc(C#N)cc2)cc(C)c1OC [ADAM 13, 5-[(1Z)-1-(4-Cyanophenyl)-5-(5-methyl-1,3,4-oxadiazol-2-yl)pent-1-en-1-yl]-N,2-dimethoxy-3-methylbenzenecarboximidoyl Fluoride], the pIC50 [1] was 4.35, the “SI (CC50/EC50) MT-4 cells” value (HIV-1IIIB) was “≦1” and the pEC50 (HIV-1IIIB) was at most 5.05. For the same compound, the CC50 [2] was 11.4 µM, the CC50 [3] was 6.7 µM and the pEC50 (HIV-1RF) was under 4.00.
In the case of CON=C(F)c1cc(/C(=C\CCCc2nc(C)no2)c2ccc(C#N)cc2)cc(C)c1OC [ADAM 14, 5-[(1Z)-1-(4-Cyanophenyl)-5-(3-methyl-1,2,4-oxadiazol-5-yl)pent-1-en-1-yl]-N,2-dimethoxy-3-methylbenzenecarboximidoyl Fluoride], the pIC50 [1] was 6.04, the “SI (CC50/EC50) MT-4 cells” value (HIV-1IIIB) was 4 and the pEC50 (HIV-1IIIB) was 5.26. The CC50 [2] was 20.4 µM, the CC50 [3] was 13.4 µM and the “SI (CC50/EC50) CEM-SS cells” value (HIV-1RF) was 7. The pEC50 (HIV-1RF) was 5.69.
For CON=C(F)c1cc(/C(=C\CCCN2CCOC2=O)c2ccc(C#N)cc2)cc(C)c1OC [ADAM 15, 5-[(1Z)-1-(4-Cyanophenyl)-5-(2-oxo-1,3-oxazolidin-3-yl)pent-1-en-1-yl]-N,2-dimethoxy-3-methylbenzenecarboximidoyl Fluoride], the pIC50 [1] was under 4.00, the pEC50 (HIV-1IIIB) was under 4.68 and the CC50 [2] was 21.1 µM. It also gave a CC50 [3] of 6.7 µM and a pEC50 (HIV-1RF) of under 4.00.
With CON=C(Cl)c1cc(/C(=C\CCCc2nnc(C)o2)c2cc(C)c3oc(=O)n(C)c3c2)cc(C)c1OC [ADAM 16, 5-[(1E)-1-(3,7-Dimethyl-2-oxo-2,3-dihydro-1,3-benzoxazol-5-yl)-5-(5-methyl-1,3,4-oxadiazol-2-yl)pent-1-en-1-yl]-N,2-dimethoxy-3-methylbenzenecarboximidoyl Chloride] the pIC50 [1] was 5.09, the “SI (CC50/EC50) MT-4 cells” value (HIV-1IIIB) was 27 and the pEC50 (HIV-1IIIB) was 6.13. The CC50 [2] was 19.9 µM, the CC50 [3] was 4.7 µM and the “SI (CC50/EC50) CEM-SS cells” value (HIV-1RF) was 4. For the same compound, the pEC50 (HIV-1RF) was 5.96.
With CON=C(Cl)c1cc(/C(=C\CCCc2nc(C)no2)c2cc(C)c3oc(=O)n(C)c3c2)cc(C)c1OC [ADAM 17, 5-[(1E)-1-(3,7-Dimethyl-2-oxo-2,3-dihydro-1,3-benzoxazol-5-yl)-5-(3-methyl-1,2,4-oxadiazol-5-yl)pent-1-en-1-yl]-N,2-dimethoxy-3-methylbenzenecarboximidoyl Chloride] the pIC50 [1] was 5.38, the “SI (CC50/EC50) MT-4 cells” value (HIV-1IIIB) was 59 and the pEC50 (HIV-1IIIB) was 6.30. The CC50 [2] was 29.4 µM, the CC50 [3] was 2.37 µM and the “SI (CC50/EC50) CEM-SS cells” value (HIV-1RF) was 5. It also gave a pEC50 (HIV-1RF) of 6.29.
Compound CON=C(Cl)c1cc(/C(=C\CCCN2CCOC2=O)c2cc(C)c3oc(=O)n(C)c3c2)cc(C)c1OC [ADAM 18, 5-[(1E)-1-(3,7-Dimethyl-2-oxo-2,3-dihydro-1,3-benzoxazol-5-yl)-5-(2-oxo-1,3-oxazolidin-3-yl)pent-1-en-1-yl]-N,2-dimethoxy-3-methylbenzenecarboximidoyl Chloride] has a pIC50 [1] of 4.20, a pEC50 (HIV-1IIIB) of under 5.28 and a CC50 [2] of 5.19 µM. For the same compound, the CC50 [3] was 5.99 µM and the pEC50 (HIV-1RF) was under 4.00.
With CON=C(Cl)c1cc(/C(=C\CCCc2nnc(C)o2)c2cc(C)c3onc(OC)c3c2)cc(C)c1OC [ADAM 19, N,2-Dimethoxy-5-[(1Z)-1-(3-methoxy-7-methyl-1,2-benzoxazol-5-yl)-5-(5-methyl-1,3,4-oxadiazol-2-yl)pent-1-en-1-yl]-3-methylbenzenecarboximidoyl Chloride] the pIC50 [1] was 4.47, the “SI (CC50/EC50) MT-4 cells” value (HIV-1IIIB) was “≦2” and the pEC50 (HIV-1IIIB) was at most 5.15. For the same compound, the CC50 [2] was 17.5 µM, the CC50 [3] was 9.7 µM and the “SI (CC50/EC50) CEM-SS cells” value (HIV-1RF) was 2. It also gave a pEC50 (HIV-1RF) of 5.28.
With CON=C(Cl)c1cc(/C(=C\CCCc2nc(C)no2)c2cc(C)c3onc(OC)c3c2)cc(C)c1OC [ADAM 20, N,2-Dimethoxy-5-[(1Z)-1-(3-methoxy-7-methyl-1,2-benzoxazol-5-yl)-5-(3-methyl-1,2,4-oxadiazol-5-yl)pent-1-en-1-yl]-3-methylbenzenecarboximidoyl Chloride] the pIC50 [1] was 5.10, the “SI (CC50/EC50) MT-4 cells” value (HIV-1IIIB) was 5 and the pEC50 (HIV-1IIIB) was 5.38. For the same compound, the CC50 [2] was 21.2 µM, the CC50 [3] was 11.4 µM and the “SI (CC50/EC50) CEM-SS cells” value (HIV-1RF) was 7. The pEC50 (HIV-1RF) was 5.77.
In the case of CON=C(Cl)c1cc(/C(=C\CCCc2nnc(C)o2)c2cccc(C#N)c2)cc(C)c1OC [ADAM 21, 5-[(1Z)-1-(3-Cyanophenyl)-5-(5-methyl-1,3,4-oxadiazol-2-yl)pent-1-en-1-yl]-N,2-dimethoxy-3-methylbenzenecarboximidoyl Chloride], the pIC50 [1] was 4.48, the “SI (CC50/EC50) MT-4 cells” value (HIV-1IIIB) was 6 and the pEC50 (HIV-1IIIB) was 5.58. The CC50 [2] was 22.3 µM, the CC50 [3] was 13.2 µM and the “SI (CC50/EC50) CEM-SS cells” value (HIV-1RF) was 2. For the same compound, the pEC50 (HIV-1RF) was 5.24.
For CON=C(Cl)c1cc(/C(=C\CCCc2nc(C)no2)c2cccc(C#N)c2)cc(C)c1OC [ADAM 22, 5-[(1Z)-1-(3-Cyanophenyl)-5-(3-methyl-1,2,4-oxadiazol-5-yl)pent-1-en-1-yl]-N,2-dimethoxy-3-methylbenzenecarboximidoyl Chloride], the pIC50 [1] was under 4.00, the “SI (CC50/EC50) MT-4 cells” value (HIV-1IIIB) was 41 and the pEC50 (HIV-1IIIB) was 5.57. The CC50 [2] was 110 µM, the CC50 [3] was 25.5 µM and the “SI (CC50/EC50) CEM-SS cells” value (HIV-1RF) was 7. The pEC50 (HIV-1RF) was 5.46.
